Data from patent US9376420B2 (YUHAN CORPORATION, priority 2012, dated 2016).
pEC50: −log10 of the molar value.

Molecular target: T1, human LXRβ (Homo sapiens, UniProt P55055)
T1 construct: expressed in transfected cells; host or cells: HEK293 cells (ATCC CRL-1573), transient transfection with pFA-hLXRβ/GAL4 and pUAS
T1 sequence (P55055 222-460 limits assumed): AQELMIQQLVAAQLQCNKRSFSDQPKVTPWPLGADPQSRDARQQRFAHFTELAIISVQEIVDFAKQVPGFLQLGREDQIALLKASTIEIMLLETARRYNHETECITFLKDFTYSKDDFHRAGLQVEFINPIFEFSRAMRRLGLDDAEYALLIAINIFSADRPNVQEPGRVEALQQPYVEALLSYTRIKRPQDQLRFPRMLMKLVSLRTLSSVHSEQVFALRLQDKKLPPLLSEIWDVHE
Assay: Assay for Transcriptional Activity of LXRβ (GAL4-hLXRβ LBD luciferase reporter, transient transfection)
Format: cell-based
Conditions: HEK293 cells transfected with pFA-hLXRβ/GAL4 and pUAS, 24 hours; for Emax: fold value in comparison with the control (DMSO-treated group); for pEC50: increase of transcriptional activity of LXRβ, average of three independent tests
Procedure, shortened: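 EC50 values, averaged over three independent runs, come from a four-parameter fit of 9-point half-log curves spanning 0.01–50 μM. Luciferase output was read in lysed HEK293 cells 24 h after dosing at 37 °C, following transient transfection with a GAL4-human LXRβ LBD fusion plus GAL4-responsive reporter.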

Row | Compound | Emax [fold] | pEC50
1 | CS(=O)(=O)c1ccc(-c2cc(C3CC(C(F)(F)C(F)(F)F)=NN3c3ccc(F)cc3F)ccn2)cn1 (stereo not shown) [Example 189, 1-(2,4-difluoro-phenyl)-5-[2-(6-methanesulfonyl-pyridin-3-yl)-pyridin-4-yl]-3-pentafluoroethyl-4,5-dihydro-1H-pyrazole] | 56 | 5.57
2 | CS(=O)(=O)N1CCN(c2cc(C3CC(C(F)(F)C(F)(F)F)=NN3c3ccc(F)cc3F)ccn2)CC1 (stereo not shown) [Example 194, 1-(2,4-difluoro-phenyl)-5-[2-(4-methanesulfonyl-piperazin-1-yl)-pyridin-4-yl]-3-pentafluoroethyl-4,5-dihydro-1H-pyrazole] | 95 | 5.44
3 | COc1cc(C)c(-c2ccc(C3CC(C(O)(C(F)(F)F)C(F)(F)F)=NN3c3ccccc3Cl)cc2)cn1 (stereo not shown) [Example 270, 1-(2-chloro-phenyl)-5-[4-(6-methoxy-4-methyl-pyridin-3-yl)-phenyl]-3-[di-(trifluoromethyl)-hydroxy-methyl]-4,5-dihydro-1H-pyrazole] | 48 | 6.36
4 | CSc1ccc(-c2ccnc(C3CC(C(F)(F)C(F)(F)F)=NN3c3ccc(F)cc3F)c2)cc1 (stereo not shown) [Example 173, 1-(2,4-difluoro-phenyl)-5-[4-(4-methylsulfanyl-phenyl)-pyridin-2-yl]-3-pentafluoroethyl-4,5-dihydro-1H-pyrazole] | 102 | 5.60
5 | COc1ccc(-c2cc(C3CC(C(F)(F)C(F)(F)F)=NN3c3ccc(F)cc3F)ccc2F)cn1 (stereo not shown) [Example 131, 1-(2,4-difluoro-phenyl)-5-[4-fluoro-3-(6-methoxy-pyridin-3-yl)-phenyl]-3-pentafluoroethyl-4,5-dihydro-1H-pyrazole] | 45 | 4.89
6 | C[S+]([O-])c1ccc(-c2cccc(C3CC(C(F)(F)C(F)(F)F)=NN3c3ccc(Cl)cc3Cl)c2)cc1 (stereo not shown) [Example 42, 1-(2,4-dichloro-phenyl)-5-(4′-methanesulfinyl-biphenyl-3-yl)-3-pentafluoroethyl-4,5-dihydro-1H-pyrazole] | 103 | 6.23
7 | OC(C1=NN(c2ccccc2Cl)C(c2ccc(-c3cc4ccccc4s3)cc2)C1)(C(F)(F)F)C(F)(F)F (stereo not shown) [Example 263, 5-(4-benzo[b]thiophen-2-yl-phenyl)-1-(2-chloro-phenyl)-3-[di-(trifluoromethyl)-hydroxy-methyl]-4,5-dihydro-1H-pyrazole] | 72 | 5.90
8 | N#Cc1ccc(-c2ccc(C3CC(C(O)(C(F)(F)F)C(F)(F)F)=NN3c3ccccc3Cl)cc2)cn1 (stereo not shown) [Example 267, 1-(2-chloro-phenyl)-5-[4-(6-cyano-pyridin-3-yl)-phenyl]-3-[di-(trifluoromethyl)-hydroxy-methyl]-4,5-dihydro-1H-pyrazole] | 59 | 6.35
9 | Fc1ccc(N2N=C(C(F)(F)C(F)(F)F)CC2c2cccc(-c3cncnc3)c2)c(F)c1 (stereo not shown) [Example 57, 1-(2,4-difluoro-phenyl)-3-pentafluoroethyl-5-[3-(5-pyrimidyl)-phenyl]-4,5-dihydro-1H-pyrazole] | 39 | 5.32
10 | COc1ccc(-c2ccc(C3CC(C(O)(C(F)(F)F)C(F)(F)F)=NN3c3ccccc3Cl)cc2)cc1 (stereo not shown) [Example 242, 1-(2-chloro-phenyl)-5-(4′-methoxy-biphenyl-4-yl)-3-[di-(trifluoromethyl)-hydroxy-methyl]-4,5-dihydro-1H-pyrazole] | 89 | 4.85
11 | CN(C)S(=O)(=O)c1cccc(-c2cccc(N3N=C(C(F)(F)C(F)(F)F)CC3c3ccc(F)cc3F)c2)n1 (stereo not shown) [Example 209, 5-(2,4-difluoro-phenyl)-1-[3-(6-dimethylsulfamoyl-pyridin-2-yl)-phenyl]-3-pentafluoroethyl-4,5-dihydro-1H-pyrazole] | 20 | 5.29

Second part, the compound after the results:

Row | Emax [fold] | pEC50 | Compound
12 | 64 | 6.11 | CS(=O)(=O)N1CCCN(c2ccc(C3CC(C(O)(C(F)(F)F)C(F)(F)F)=NN3c3ccccc3Cl)cc2)CC1 (stereo not shown) [Example 322, 1-(2-chloro-phenyl)-5-[4-(4-methanesulfonyl-homopiperazin-1-yl)-phenyl]-3-[di-(trifluoromethyl)-hydroxy-methyl]-4,5-dihydro-1H-pyrazole]
13 | 46 | 5.60 | CS(=O)(=O)N1CCN(c2ccc(C3CC(C(O)(C(F)(F)F)C(F)(F)F)=NN3c3ccccc3Cl)cc2)CC1 (stereo not shown) [Example 312, 1-(2-chloro-phenyl)-5-[4-(4-methanesulfonyl-piperazin-1-yl)-phenyl]-3-[di-(trifluoromethyl)-hydroxy-methyl]-4,5-dihydro-1H-pyrazole]
14 | 24 | 5.65 | OC(C1=NN(c2ccccc2Cl)C(c2ccc(-c3ccc(C(F)(F)F)nc3)cc2)C1)(C(F)(F)F)C(F)(F)F (stereo not shown) [Example 272, 1-(2-chloro-phenyl)-5-[4-(6-trifluoromethyl-pyridin-3-yl)-phenyl]-3-[di-(trifluoromethyl)-hydroxy-methyl]-4,5-dihydro-1H-pyrazole]
15 | 40 | 6.14 | CS(=O)(=O)c1cc(F)c(-c2ccc(C3CC(C(O)(C(F)(F)F)C(F)(F)F)=NN3c3ccccc3Cl)cc2)c(F)c1 (stereo not shown) [Example 288, 1-(2-chloro-phenyl)-5-[2′,6′-difluoro-4′-(methylsulfonyl)-biphenyl-4-yl]-3-[di-(trifluoromethyl)-hydroxy-methyl]-4,5-dihydro-1H-pyrazole]
16 | 45 | 6.11 | CN(C)S(=O)(=O)N1CC=C(c2ccc(C3CC(C(O)(C(F)(F)F)C(F)(F)F)=NN3c3ccc(F)cc3F)cc2)CC1 (stereo not shown) [Example 401, 1-(2,4-difluoro-phenyl)-5-[4-(1-dimethylsulfamoyl-1,2,3,6-tetrahydropyridin-4-yl)-phenyl]-3-[di-(trifluoromethyl)-hydroxy-methyl]-4,5-dihydro-1H-pyrazole]
17 | 30 | 6.45 | CS(=O)(=O)c1cccc(-c2cccc(N3N=C(C(O)(C(F)(F)F)C(F)(F)F)CC3c3ccccc3Cl)c2)c1 (stereo not shown) [Example 434, 5-(2-chloro-phenyl)-1-[3′-(methylsulfonyl)-biphenyl-3-yl]-3-[di-(trifluoromethyl)-hydroxy-methyl]-4,5-dihydro-1H-pyrazole]
18 | 90 | 5.95 | CC(C)(C)OC(=O)N1CC=C(c2ccc(C3CC(C(O)(C(F)(F)F)C(F)(F)F)=NN3c3ccccc3Cl)s2)CC1 (stereo not shown) [Example 416, 1-(2-chloro-phenyl)-5-[5-(1-BOC-1,2,3,6-tetrahydropyridin-4-yl)-thiophen-2-yl]-3-[di-(trifluoromethyl)-hydroxy-methyl]-4,5-dihydro-1H-pyrazole]
19 | 53 | 6.00 | OC(C1=NN(c2ccccc2Cl)C(c2ccc(-c3ccc(F)cc3)cc2F)C1)(C(F)(F)F)C(F)(F)F (stereo not shown) [Example 344, 1-(2-chloro-phenyl)-5-(3,4′-difluoro-biphenyl-4-yl)-3-[di-(trifluoromethyl)-hydroxy-methyl]-4,5-dihydro-1H-pyrazole]
20 | 51 | 6.26 | CN(C)S(=O)(=O)N1CCCN(c2ccc(C3CC(C(O)(C(F)(F)F)C(F)(F)F)=NN3c3ccccc3Cl)cc2)CC1 (stereo not shown) [Example 326, 1-(2-chloro-phenyl)-5-[4-(4-dimethylsulfamoyl-homopiperazin-1-yl)-phenyl]-3-[di-(trifluoromethyl)-hydroxy-methyl]-4,5-dihydro-1H-pyrazole]
21 | 80 |  | CS(=O)(=O)c1ccc(-c2ccc(C3CC(C(O)(C(F)(F)F)C(F)(F)F)=NN3c3ccccc3Cl)s2)cn1 (stereo not shown) [Example 420, 1-(2-chloro-phenyl)-5-{5-[6-(methylsulfonyl)-pyridin-3-yl]-thiophen-2-yl}-3-[di-(trifluoromethyl)-hydroxy-methyl]-4,5-dihydro-1H-pyrazole]
22 | 87 | 6.07 | CSc1cccc(-c2ccc(C3CC(C(O)(C(F)(F)F)C(F)(F)F)=NN3c3ccccc3Cl)c(F)c2)c1 (stereo not shown) [Example 338, 1-(2-chloro-phenyl)-5-(3-fluoro-3′-methylsulfanyl-biphenyl-4-yl)-3-[di-(trifluoromethyl)-hydroxy-methyl]-4,5-dihydro-1H-pyrazole]
23 | 55 | 5.99 | COc1ncc(-c2ccc(C3CC(C(O)(C(F)(F)F)C(F)(F)F)=NN3c3ccccc3Cl)cc2)cc1C=O (stereo not shown) [Example 274, 1-(2-chloro-phenyl)-5-[4-(5-formyl-6-methoxy-pyridin-3-yl)-phenyl]-3-[di-(trifluoromethyl)-hydroxy-methyl]-4,5-dihydro-1H-pyrazole]
24 | 50 | 6.35 | OC(C1=NN(c2ccc(F)cc2F)C(c2ccc(-c3cncc(F)c3)cc2)C1)(C(F)(F)F)C(F)(F)F (stereo not shown) [Example 381, 1-(2,4-difluoro-phenyl)-5-[4-(5-fluoro-pyridin-3-yl)-phenyl)-3-[di-(trifluoromethyl)-hydroxy-methyl]-4,5-dihydro-1H-pyrazole]
25 | 101 | 6.11 | Cc1ccccc1-c1ccc(C2CC(C(O)(C(F)(F)F)C(F)(F)F)=NN2c2ccccc2Cl)c(F)c1 (stereo not shown) [Example 340, 1-(2-chloro-phenyl)-5-(3-fluoro-2′-methyl-biphenyl-4-yl)-3-[di-(trifluoromethyl)-hydroxy-methyl]-4,5-dihydro-1H-pyrazole]
